According to patent US20100222423A1, “ASPALATHIN-LIKE DIHYDROCHALCONE, EXTRACTS FROM UNFERMENTED ROOIBOS AND PROCESS FOR PREPARATION” (KNEIPP-WERKE KNEIPP-MITTEL-ZENTRALE GMBH & CO. KG, priority 2007, published 2010):
Values belong to the compound of their own block, whether it stands above or below them.

Tested on: Fischer-344 rats
Experiment: Tele-Stereo-EEG investigations in the rat (field potentials from frontal cortex, hippocampus, striatum, reticular formation)
Format: in vivo
Conditions: for effect on EEG frequencies in comparison with molecular constituents: approximately equimolar administration; for changes in EEG frequencies / power density compared with saline solution: oral single dose 3 or 6 mg/kg, up to 5 hours after application, n=6 rats
Description: The changes in the EEG (electroencephalography) frequencies was determined after administration of saline solution (control) and the compound of the formula I orally (3 or 6 mg/kg body weight).
The investigations were carried out analogously to the method described by W. Dimpfel (Dimpfel, W., Preclinical database of pharmaco-specific rat EEG fingerprints (Tele-Stereo-EEG). Eur. J. Med. Res. (2003) δ: 199-207) as follows: 4 Bipolar concentric electrodes together with a microplug on a common baseplate were implanted in six male adult Fischer-344 rats (converted day-night) aged 6 months. The plug served for recording a four-channel transmitter for telemetric transmission of the field potentials derived from frontal cortex, hippocampus, striatum and reticular formation. The signals were subjected to a fast Fourier transformation on a computer system (“EEG analysis” software, OS science operating system, “LabTeam” laboratory computer from MediSyst, Linden, Germany) in realtime and the power density spectra were determined in each case over 60 minutes. The division of the spectra into 6 different frequency ranges permitted the determination of pharmaco-specific changes in relation to the initial values, measured in each case before application, within these frequency bands.
Application protocol of the substances: the substances were applied orally 45 minutes after the beginning of the measurements (initial value). Five minutes later, the measurements were started again, analyzed continuously at least over the next 5 hours and collected in 60 minute periods. The test substance was applied in a dose of 3 and 6 mg/kg (compound of the formula I). The experimental series was begun with the administration of saline solution (control), which led to no abnormal change (FIG. 6).
The statistical comparison of the experiments with the results which were measured after administration of saline solution was effected with the aid of multivariant analysis according to Ahrens and Läuter (cf. H. Ahrens, J. Läuter, “Mehrdimensionale Varianzanalyse” [Multidimensional variance analysis]” (1974), Akademie Verlag, Berlin) on the basis of the changes within the individual frequency bands in all regions of the brain as variables.

Compound: O=C(CCc1ccc(O)c(O)c1)c1c(O)cc(O)c([C@@H]2O[C@H](CO)[C@@H](O)[C@H](O)[C@H]2O)c1O [aspalathin]
effect on EEG frequencies in comparison with molecular constituents (oral, rat): not by parts of the molecule

Compound: catechin [reference compound]
effect on EEG frequencies in comparison with molecular constituents (oral, rat): not by parts of the molecule

crossing of the blood-brain barrier (inferred from central nervous activity) (rat, oral, substance or its metabolites): evidently cross the blood-brain barrier
Compound: O=C(CCc1ccc(O)c(O)c1)c1c(O)c(C2OC(CO)C(O)C(O)C2O)c(O)c(C2c3c(O)cc(O)cc3OC(c3ccc(O)c(O)c3)C2O)c1O (centres unmarked) [compound according to formula I]
effect on EEG frequencies in comparison with molecular constituents (oral, rat): the effect can be achieved
changes in EEG frequencies / power density compared with saline solution: stable changes in the power density in all areas of the brain
changes in EEG frequencies / power density compared with saline solution (listed as compound according to the formula I): dose-dependent changes in the EEG frequencies
pattern of changes in electrical brain activity compared with reference medicaments (oral single dose, rat): corresponded to those after administration of metanicotine, galantamine, tacrine, L-DOPA or nefopam
discriminance analysis of EEG frequency changes (four regions of the brain, 6 frequency bands, 24 variables) (rat, compared with medicaments of the database): close to that of galantamine, tacrine and nefopam
